# Source: patent publication US20080108641A1, “Compounds for treating inflammatory disorders, demyelinating disdorders and cancers” (priority 2006, published 2008)
# Columns and labels:
# [1] = tested on: Experimental Autoimmune Encephalomyelitis (EAE); test: Acute stage Experimental Autoimmune Encephalomyelitis (EAE) model, daily dosing
# Method: Accordingly, three randomized cohorts of guinea pigs with EAE induced by the method of Example 2, were treated, respectively, with 6 mg/kg of Symadex™ (full salt hydrate) and 0.35 mg/kg of mitoxantrone. Animals were treated daily, by intraperitoneal injection, for 15 days, starting on day 7 post immunization. Controls were treated with vehicle. We reasoned that 15 consecutive, 6 mg/kg doses of Symadex™ would represent a level of drug exposure that would be commensurate with the “20 mg/kg every 72 hours” regimen in Example 4 and consistent with a mid level exposure between the 20 mg/kg and the 40 mg/kg schedule given weekly, in Example 2. The mitoxantrone dose was selected to reflect a typical high dose given to rats or mice by daily dosing in the prior art, but allometrically scaled to the guinea pig.
# [2] = tested on: T-lymphocyte cells isolated from thymus; test: Cell proliferation, T-Cell + Con A ([3H]thymidine incorporation); assay type: cell-based, balb/c mice; settings: Mus musculus
# Method: T-lymphocyte cells isolated from thymus of balb/c mice weighing 17±1 g were used. Test compound and/or vehicle is incubated with the cells (4×10^6/ml) in the presence of 3 μg/mL Concanavalin A (Con A) in AIM-V medium pH 7.4 at 37° C. for 24 hours. [^3H]Thymidine (120 nM) was then added for an additional overnight incubation period. Thymidine incorporation was assessed by liquid scintillation counting. Compounds were screened at 10, 1, 0.1, 0.01 and 0.001 μM.
# (§1) Test compound-induced suppression of cell proliferation by 50 percent or more (≧50%) relative to vehicle control response indicates significant inhibitory activity.
# [3] = tested on: colorectal cancer cell lines (HT29 & HCT116); test: Microarray differential gene expression (CodeLink Human Whole Genome Bioarrays); assay type: cell-based
# [4] = human dose of 540 mg/m^2 body surface area (as free base); cited from earlier work
# [5] = tested on: B-lymphocyte cells isolated from the spleen; test: Cell proliferation, B-Cell + LPS ([3H]thymidine incorporation); assay type: cell-based, balb/c mice; settings: Mus musculus
# Method: B-lymphocyte cells isolated from the spleen of balb/c mice weighing 17±1 g were used. Test compound and/or vehicle were incubated with the cells (1.5×10^6/ml) in the presence of 10 μg/ml lipopolysaccharide (LPS) in AIM-V medium pH 7.4 at 37° C. for 24 hours. [^3H]Thymidine (120 nM) was then added for an additional overnight incubation period. Thymidine incorporation was assessed by liquid scintillation counting.
# as §1
smiles,measurement,setting,value
CCN(CC)CCNc1ccc2ncn3c4ccc(O)cc4c(=O)c1c23 [Symadex™],clinical score course (neurological impairment),"[1]; daily i.p. for 15 days from day 7 post immunization, Symadex 6 mg/kg, mitoxantrone 0.35 mg/kg",initial rise in neurological impairment is arrested
same,statistical significance of therapeutic effect on clinical score vs control (Mann-Whitney rank-sum),"[1]; daily i.p. for 15 days, Symadex 6 mg/kg (p below 0.05), mitoxantrone 0.35 mg/kg",reaches statistical significance
same,"pathology scores: perivascular cuffing (P), myelitis (E) and demyelination (D) vs control","[1]; necropsy after 15 daily doses, p value<0.05 from control","reducing the perivascular cuffing (P), myelitis (E) and demyelination (D)"
same,IC50,[2],0.014 µM
same,inhibition at 0.001 µM,[2]; read-out: % Growth Inhibition,10%
same,inhibition at 0.01 µM,[2]; read-out: % Growth Inhibition,44%
same,inhibition at 0.1 µM,[2]; read-out: % Growth Inhibition,82%
same,inhibition at 1 µM,[2]; read-out: % Growth Inhibition,103%
same,inhibition at 10 µM,[2]; read-out: % Growth Inhibition,104%
same,number of down-regulated genes significantly represented in both cell types,"[3]; array of 55,000 gene fragment accessions, cells grown at concentration",271
same,MEAN FOLD CHANGE OVER CONTROL,[3]; gene ACYP1,−2.07
same,MEAN FOLD CHANGE OVER CONTROL,[3]; gene ADCYAP1,−21.74
same,MEAN FOLD CHANGE OVER CONTROL,[3]; gene ADH1C,−12.02
same,MEAN FOLD CHANGE OVER CONTROL,[3]; gene AGT,−22.71
same,MEAN FOLD CHANGE OVER CONTROL,[3]; gene ALG5,−2.71
same,MEAN FOLD CHANGE OVER CONTROL,[3]; gene ANAPC4,−1.92
same,MEAN FOLD CHANGE OVER CONTROL,[3]; gene APOA1,−13.15
same,MEAN FOLD CHANGE OVER CONTROL,[3]; gene ARL6IP,−2.29
same,MEAN FOLD CHANGE OVER CONTROL,[3]; gene ASAH2,−2.21
same,MEAN FOLD CHANGE OVER CONTROL,[3]; gene HAT1,−2.63
same,MEAN FOLD CHANGE OVER CONTROL,[3]; gene HMGB1,−1.97
same,MEAN FOLD CHANGE OVER CONTROL,[3]; gene HMMR,−2.94
same,MEAN FOLD CHANGE OVER CONTROL,[3]; gene HNF4A,−7.42
same,MEAN FOLD CHANGE OVER CONTROL,[3]; gene HNRPA2B1,−1.93
same,MEAN FOLD CHANGE OVER CONTROL,[3]; gene HSGT1,−2.08
same,MEAN FOLD CHANGE OVER CONTROL,[3]; gene HSPB2,−13.76
same,MEAN FOLD CHANGE OVER CONTROL,[3]; gene IBSP,−58.56
same,MEAN FOLD CHANGE OVER CONTROL,[3]; gene IL1RAP,−11.23
same,MEAN FOLD CHANGE OVER CONTROL,[3]; gene IL1RL1,−28.60
same,MEAN FOLD CHANGE OVER CONTROL,[3]; gene IL7R,−25.20
same,MEAN FOLD CHANGE OVER CONTROL,[3]; gene IL13RA2,−9.79
same,MEAN FOLD CHANGE OVER CONTROL,[3]; gene ITGA2B,−10.64
same,MEAN FOLD CHANGE OVER CONTROL,[3]; gene ITGA9,−27.91
same,MEAN FOLD CHANGE OVER CONTROL,[3]; gene ITGAE,−2.12
same,MEAN FOLD CHANGE OVER CONTROL,[3]; gene ITGB3BP,−2.73
same,MEAN FOLD CHANGE OVER CONTROL,[3]; gene ITSN1,−15.06
same,MEAN FOLD CHANGE OVER CONTROL,[3]; gene KCNJ12,−15.93
same,MEAN FOLD CHANGE OVER CONTROL,[3]; gene KCNJ15,−6.83
same,MEAN FOLD CHANGE OVER CONTROL,[3]; gene KCNQ2,−24.13
same,MEAN FOLD CHANGE OVER CONTROL,[3]; gene KIAA0089,−7.23
same,MEAN FOLD CHANGE OVER CONTROL,[3]; gene KIF2C,−2.52
same,MEAN FOLD CHANGE OVER CONTROL,[3]; gene KIF5A,−11.04
same,MEAN FOLD CHANGE OVER CONTROL,[3]; gene KLRG1,−24.24
same,MEAN FOLD CHANGE OVER CONTROL,[3]; gene KRT13,−3.34
same,MEAN FOLD CHANGE OVER CONTROL,[3]; gene LCP2,−11.85
same,MEAN FOLD CHANGE OVER CONTROL,[3]; gene LIMS2,−57.61
same,MEAN FOLD CHANGE OVER CONTROL,[3]; gene LNX,−87.48
same,MEAN FOLD CHANGE OVER CONTROL,[3]; gene LPAAT-E (first entry),−11.94
same,MEAN FOLD CHANGE OVER CONTROL,[3]; gene LPAAT-E (second entry),−2.40
same,MEAN FOLD CHANGE OVER CONTROL,[3]; gene LRP1B,−15.01
same,MEAN FOLD CHANGE OVER CONTROL,[3]; gene LTB,−12.57
same,MEAN FOLD CHANGE OVER CONTROL,[3]; gene MAD2L1,−3.14
same,MEAN FOLD CHANGE OVER CONTROL,[3]; gene MAP6,−12.89
same,MEAN FOLD CHANGE OVER CONTROL,[3]; gene MAPK13,−2.14
same,MEAN FOLD CHANGE OVER CONTROL,[3]; gene MAPT,−26.53
same,MEAN FOLD CHANGE OVER CONTROL,[3]; gene MAZ,−1.89
same,MEAN FOLD CHANGE OVER CONTROL,[3]; gene MCM6,−1.97
same,MEAN FOLD CHANGE OVER CONTROL,[3]; gene MCM7,−2.69
same,MEAN FOLD CHANGE OVER CONTROL,[3]; gene MEA,−2.39
same,MEAN FOLD CHANGE OVER CONTROL,[3]; gene MGAT4A,−10.83
same,MEAN FOLD CHANGE OVER CONTROL,[3]; gene MIS12,−2.20
same,MEAN FOLD CHANGE OVER CONTROL,[3]; gene MPZL1,−2.04
same,MEAN FOLD CHANGE OVER CONTROL,[3]; gene MRPL1,−2.02
same,MEAN FOLD CHANGE OVER CONTROL,[3]; gene MRPL11,−2.97
same,MEAN FOLD CHANGE OVER CONTROL,[3]; gene MRPL13,−2.16
same,MEAN FOLD CHANGE OVER CONTROL,[3]; gene MRPL23,−2.29
same,MEAN FOLD CHANGE OVER CONTROL,[3]; gene MRPL39,−2.20
same,MEAN FOLD CHANGE OVER CONTROL,[3]; gene MSLN,−17.46
same,MEAN FOLD CHANGE OVER CONTROL,[3]; gene MT1A,−16.21
same,MEAN FOLD CHANGE OVER CONTROL,[3]; gene MT2A,−2.09
same,MEAN FOLD CHANGE OVER CONTROL,[3]; gene MTIF2,−59.05
same,MEAN FOLD CHANGE OVER CONTROL,[3]; gene MXD3,−2.66
same,MEAN FOLD CHANGE OVER CONTROL,[3]; gene MYBPC2,−21.22
same,MEAN FOLD CHANGE OVER CONTROL,[3]; gene MYO15A,−50.59
same,MEAN FOLD CHANGE OVER CONTROL,[3]; gene NCF1,−33.67
same,MEAN FOLD CHANGE OVER CONTROL,[3]; gene NCF2,−21.83
same,MEAN FOLD CHANGE OVER CONTROL,[3]; gene NDUFA6,−2.51
same,MEAN FOLD CHANGE OVER CONTROL,[3]; gene NDUFB3,−15.58
same,MEAN FOLD CHANGE OVER CONTROL,[3]; gene NDUFV3,−10.52
same,MEAN FOLD CHANGE OVER CONTROL,[3]; gene NEB,−6.89
same,MEAN FOLD CHANGE OVER CONTROL,[3]; gene NFATC1,−16.69
same,MEAN FOLD CHANGE OVER CONTROL,[3]; gene NFKBIB,−2.01
same,MEAN FOLD CHANGE OVER CONTROL,[3]; gene NMI,−2.41
same,MEAN FOLD CHANGE OVER CONTROL,[3]; gene NMU,−2.12
same,MEAN FOLD CHANGE OVER CONTROL,[3]; gene NR0B1,−15.94
same,MEAN FOLD CHANGE OVER CONTROL,[3]; gene NR2E1,−54.82
same,MEAN FOLD CHANGE OVER CONTROL,[3]; gene NR2E3,−14.89
same,MEAN FOLD CHANGE OVER CONTROL,[3]; gene NRG1,−17.54
same,MEAN FOLD CHANGE OVER CONTROL,[3]; gene NT5C3,−2.08
same,MEAN FOLD CHANGE OVER CONTROL,[3]; gene NT5E,−17.10
same,MEAN FOLD CHANGE OVER CONTROL,[3]; gene NTHL1,−2.34
same,MEAN FOLD CHANGE OVER CONTROL,[3]; gene NUCKS,−2.02
same,MEAN FOLD CHANGE OVER CONTROL,[3]; gene NUDT1,−1.89
same,MEAN FOLD CHANGE OVER CONTROL,[3]; gene NUP107,−2.68
same,MEAN FOLD CHANGE OVER CONTROL,[3]; gene OLR1,−16.33
same,MEAN FOLD CHANGE OVER CONTROL,[3]; gene OXCT,−2.68
same,MEAN FOLD CHANGE OVER CONTROL,[3]; gene PAFAH1B1,−12.85
same,MEAN FOLD CHANGE OVER CONTROL,[3]; gene PAFAH1B2,−2.25
same,MEAN FOLD CHANGE OVER CONTROL,[3]; gene PAICS,−2.03
same,MEAN FOLD CHANGE OVER CONTROL,[3]; gene PCDH7,−19.65
same,MEAN FOLD CHANGE OVER CONTROL,[3]; gene PCSK2,−16.89
same,MEAN FOLD CHANGE OVER CONTROL,[3]; gene PDCD5,−2.21
same,MEAN FOLD CHANGE OVER CONTROL,[3]; gene PDE11A,−16.85
same,MEAN FOLD CHANGE OVER CONTROL,[3]; gene PECAM1,−17.53
same,MEAN FOLD CHANGE OVER CONTROL,[3]; gene PFKL,−10.55
same,MEAN FOLD CHANGE OVER CONTROL,[3]; gene PHAX,−2.17
same,MEAN FOLD CHANGE OVER CONTROL,[3]; gene PHF5A,−2.95
same,MEAN FOLD CHANGE OVER CONTROL,[3]; gene PIR51,−3.73
same,MEAN FOLD CHANGE OVER CONTROL,[3]; gene PLK4,−2.39
same,MEAN FOLD CHANGE OVER CONTROL,[3]; gene PLXNA3,−8.04
same,fold down-regulation of SULT4A1,"[3]; gene SULT4A1, text statement",~300 fold
same,fold down-regulation of the SYNE1 spectrin repeats,"[3]; gene SYNE1, text statement",1500 fold
same,tolerability of single dose,[4],safe and well-tolerated
same,IC50,[5],0.038 µM
same,inhibition at 0.001 µM,[5]; read-out: % Growth Inhibition,0%
same,inhibition at 0.01 µM,[5]; read-out: % Growth Inhibition,38%
same,inhibition at 0.1 µM,[5]; read-out: % Growth Inhibition,80%
same,inhibition at 1 µM,[5]; read-out: % Growth Inhibition,101%
same,inhibition at 10 µM,[5]; read-out: % Growth Inhibition,103%
